Biological target: T1, Human lysozyme (HL) (Homo sapiens, UniProt P61626)
T1 construct: gene LYZ; commercial human lysozyme (Sigma-Aldrich), dialysed; single polypeptide, no subunits; 1REX used for docking only
T1 sequence (P61626 19-148): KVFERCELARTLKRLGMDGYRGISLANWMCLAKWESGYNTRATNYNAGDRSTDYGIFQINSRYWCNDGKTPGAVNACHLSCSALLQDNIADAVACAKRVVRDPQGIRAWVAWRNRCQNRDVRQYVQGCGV
Assay: intrinsic fluorescence quenching, modified Stern-Volmer
Format: binding
Conditions: 20 mM sodium phosphate pH 7.4, 310 K, 5 uM HL, excitation 280 nm; n = 1.00; double-log
Source text: intrinsic fluorescence quenching, modified Stern-Volmer on Human lysozyme (HL)

Kb: 9660 M⁻¹
SMILES: CC(C)(C#N)c1cc(Cn2cncn2)cc(C(C)(C)C#N)c1 [anastrozole]
